Measured values taken from patent publication US20040214856A1, “Cannabinoid receptor ligands and uses thereof” (Pfizer Inc, priority 2003, published 2004).

Test system: CB-1 receptor
Experiment: CB-1 receptor binding assay ([3H]SR141716A displacement)
Details: inhibition of [3H]SR141716A binding; rat or human protocol not specified
Procedure: The following assays were designed to detect compounds that inhibit the binding of [^3H] SR141716A (selective radiolabeled CB-1 ligand) and [^3H] 5-(1,1-dimethylheptyl)-2-[5-hydroxy-2-(3-hydroxypropyl)-cyclohexyl]-phenol; radiolabeled CB-1/CB-2 ligand) to their respective receptors.
PelFreeze brains (available from Pel Freeze Biologicals, Rogers, Arkansas) were cut up and placed in tissue preparation buffer (5 mM Tris HCl, pH=7.4 and 2 mM EDTA), polytroned at high speed and kept on ice for 15 minutes. The homogenate was then spun at 1,000×g for 5 minutes at 4° C. The supernatant was recovered and centrifuged at 100,000×G for 1 hour at 4° C. The pellet was then re-suspended in 25 ml of TME ([…], pH=7.4, 5 mM MgCl2, and 1 mM EDTA) per brain used. A protein assay was performed and 200 μl of tissue totaling 20 μg was added to the assay.
The test compounds were diluted in drug buffer (0.5% BSA, 10% DMSO and TME) and then 25 μl were added to a deep well polypropylene plate. [^3H] […] In the morning the filters were counted on a Wallac Betaplate™ counter (available from PerkinElmer Life Sciences™, Boston, Mass.). […]
The test compounds were diluted in drug buffer (0.5% BSA, 10% DMSO and TME) and then 25 μl were added to a deep well polypropylene plate. […] In the morning the filters were counted on a Wallac Betaplate™ counter (available from PerkinElmer Life Sciences™, Boston, Mass.).

For `CC(C)N1Cc2nn(-c3ccccc3Cl)c(-c3ccc(C#N)cc3)c2C1=O` [Example 1A-2, 2-(2-chloro-phenyl)-5-isopropyl-3-(4-cyano-phenyl)-5,6-dihydro-2H-pyrrolo[3,4-c]pyrazol-4-one], which CB-1 binding activities is on record?
The CB-1 binding activities was 4 nM.

Which CB-1 binding activities does the source give for `CC(C)N1Cc2nn(-c3ccccc3Cl)c(-c3ccc(Cl)cc3)c2C1=O` [Example 1A-3, 2-(2-chloro-phenyl)-5-isopropyl-3-(4-chloro-phenyl)-5,6-dihydro-2H-pyrrolo[3,4-c]pyrazol-4-one] here?
Its CB-1 binding activities is 2 nM.
